{"source": "patent US7728036B2", "about": "“Methods for delivery of catecholic butanes for treatment of tumors” (priority 2003, dated 2010)", "key": {"[1]": {"system": "head and neck cancer", "assay": "Ex-US clinical study in head and neck cancer, daily M4N with or without G4N followed by surgical resection", "assay_type": "in vivo, human"}, "[2]": {"assay": "Systemic tissue distribution of 3H-M4N 3 hours after single i.p. or i.v. injection", "assay_type": "in vivo, mice", "experimental": "M4N Tissue Distribution Studies Using ^3H-M4N. […] The insoluble pellet was then further extracted with EtOH.\nAt 3 hours post-injection, the organs and blood were harvested and weighed, and the M4N was extracted."}, "[3]": {"assay": "Tissue distribution after short-term oral feeding of M4N (HPLC)", "assay_type": "in vivo, mice", "experimental": "Tissue Distribution and Toxicity Analysis Following Short-Term and Long-Term Oral Feeding. For short-term feeding experiments, 30 mg of M4N dissolved in 300 μL castor oil was orally administered to each of 6 mice. At 2 h, 4 h, and 8 h post-administration time points, 2 mice were sacrificed, the organs and blood were collected, and the M4N extracted and quantitated as described below. In long-term feeding experiments, mice were fed food balls consisting of M4N dissolved in corn oil and Basal Mix (Harlan Teklad; Madison, Wis.; Cat. # TD 02273) for 14 weeks. Food balls weighed 9 g and contained 242 mg M4N each. Two mice, one male and one female, were reserved for long-term drug retention studies; and fourteen mice, both male and female, were used for long-term drug toxicity studies. At the end of feeding, mice were sacrificed, the organs and blood were collected, and the M4N extracted and quantitated as described below.\nM4N Extraction and HPLC Analysis Following Oral Feeding. Organs and blood were harvested from M4N-fed mice, then frozen overnight at −80° C. Prior to freezing, gastro-intestinal organs (stomach, small intestine, colon) were cut open longitudinally and washed thoroughly with PBS to remove any contents. The following day, organs were cut into small pieces on dry ice with a razor blade, dried in a Speed-vac, then crushed into a rough powder using a mortar and pestle. Samples were extracted overnight in 100% ethanol with shaking. Samples were centrifuged and the supernatant collected. Pellets were extracted two more times in 100% ethanol overnight with shaking. The pooled ethanol extracts were evaporated on bench top for several days, then re-extracted with ethyl acetate, and dried completely in a Speed-vac. The dried samples were then analyzed quantitatively by HPLC and M4N was identified by mass spectroscopy using pure M4N as a standard.\nIn samples from short-term fed mice, dialysis was performed to further purify M4N from the tissue extracts. Dried ethanol extracts were redissolved in 1.5 mL 100% EtOH and centrifuged for 5 min. The supernatant was collected and the pellet was resuspended in 0.4 mL ethanol and centrifuged again. The supernatant was pooled with the previous supernatant, then dialyzed overnight against 150 mL 100% EtOH. The dialysates were dried on bench top and in a speed-vac, then analyzed by HPLC.\nHPLC Quantitation of M4N. Samples from a single mouse at each time point were sent to KP Pharmaceuticals (Bloomington, Ind.) for HPLC analysis. HPLC conditions were described as follows: 35%:0.1% TFA in H2O, 65%=“CAN.” The M4N standard was prepared by diluting 10.01 mg M4N in 100 mL of CAN, then sonicating for 5 min. (2002 ng/injection). The samples were prepared by adding 400 μL EtOH and sonicating for 2 min. or until complete dissolution was achieved. The injection volume for the samples was 100 μL.\nThe convenience and ease of oral administration, however, especially in the case of long-term post-surgical adjuvant treatment, would considerably facilitate drug administration to patients and would improve patient quality of life. Thus, in addition to i.p. and i.v. administration, the ability to systemically distribute M4N by oral administration was also investigated. In both short-term (<8 hours) feeding experiments and long-term (14 weeks) feeding experiments, M4N levels in various tissues and their in vivo toxicity was assessed. In short-term experiments, mice were fed 30 mg of M4N dissolved in castor oil (100 mg M4N/mL castor oil), and at 2, 4, and 8 hours post-feeding, the quantity of M4N present in various tissues was determined by HPLC."}, "[4]": {"assay": "Solubility character", "assay_type": "physicochemical"}, "[5]": {"system": "Hep3B hepatocellular carcinoma cells", "assay": "Xenograft assay of human tumors in athymic nude mice, Hep3B", "assay_type": "in vivo", "source_text": "Xenograft Assay of Human Tumors.\nControl mice received vehicle only."}, "[6]": {"conditions": "Hep 3B, of 7 M4N-treated tumors, 21 days i.p. treatment"}}, "data": [{"smiles": "COc1ccc(C[C@@H](C)[C@@H](C)Cc2ccc(OC)c(OC)c2)cc1OC", "note": "[M4N, meso-1,4-bis(3,4-dimethoxyphenyl)-2,3-dimethylbutane]", "values": [{"measurement": "Dose delivered without drug-related toxicity", "setting": "[1]; for up to five days, with or without concomitant G4N 20 mg per day", "value": "≤ 20", "unit": "mg per day"}, {"measurement": "Patients remaining disease free", "setting": "[1]; long-term follow ups, M4N with or without G4N, then surgical resection", "value": 64, "unit": "%"}, {"measurement": "Efficacy in terms of induction of necrosis", "setting": "[1]; patients that completed the treatment", "value": "over 80%"}, {"measurement": "M4N detected in tissue", "setting": "[2]; heart or blood, 3 hours post-injection", "value": "Little or no M4N"}, {"measurement": "M4N present in tissue", "setting": "[2]; liver and fat, 3 hours post-injection", "value": "Significant quantities"}, {"measurement": "Toxicity of systemic i.p. and i.v. injection", "setting": "[2]; mice, single injection", "value": "no apparent toxicity"}, {"measurement": "Quantity of M4N in each tissue", "setting": "[3]; 2 hours post-feeding, 30 mg oral", "value": "< 2", "unit": "ng per gram tissue"}, {"measurement": "M4N levels", "setting": "[3]; 8 hours post-feeding", "value": "decreased in nearly all organs"}, {"measurement": "M4N (ng)/organ dry weight (g)", "setting": "[3]; Bladder, 2 hours after oral 30 mg M4N in castor oil", "value": 2.34, "unit": "ng/g"}, {"measurement": "M4N (ng)/organ dry weight (g)", "setting": "[3]; Bladder, 4 hours after oral 30 mg M4N in castor oil", "value": 1.69, "unit": "ng/g"}, {"measurement": "M4N (ng)/organ dry weight (g)", "setting": "[3]; Bladder, 8 hours after oral 30 mg M4N in castor oil", "value": 0, "unit": "ng/g"}, {"measurement": "M4N (ng)/organ dry weight (g)", "setting": "[3]; Blood, 2 hours after oral 30 mg M4N in castor oil", "value": 0.5, "unit": "ng/g"}, {"measurement": "M4N (ng)/organ dry weight (g)", "setting": "[3]; Blood, 4 hours after oral 30 mg M4N in castor oil", "value": 2.08, "unit": "ng/g"}, {"measurement": "M4N (ng)/organ dry weight (g)", "setting": "[3]; Blood, 8 hours after oral 30 mg M4N in castor oil", "value": 0, "unit": "ng/g"}, {"measurement": "M4N (ng)/organ dry weight (g)", "setting": "[3]; Caecum, 2 hours after oral 30 mg M4N in castor oil", "value": 1.11, "unit": "ng/g"}, {"measurement": "M4N (ng)/organ dry weight (g)", "setting": "[3]; Caecum, 4 hours after oral 30 mg M4N in castor oil", "value": 4.38, "unit": "ng/g"}, {"measurement": "M4N (ng)/organ dry weight (g)", "setting": "[3]; Caecum, 8 hours after oral 30 mg M4N in castor oil", "value": 6.55, "unit": "ng/g"}, {"measurement": "M4N (ng)/organ dry weight (g)", "setting": "[3]; Fat, 2 hours after oral 30 mg M4N in castor oil", "value": 0.11, "unit": "ng/g"}, {"measurement": "M4N (ng)/organ dry weight (g)", "setting": "[3]; Fat, 4 hours after oral 30 mg M4N in castor oil", "value": 0, "unit": "ng/g"}, {"measurement": "M4N (ng)/organ dry weight (g)", "setting": "[3]; Fat, 8 hours after oral 30 mg M4N in castor oil", "value": 0, "unit": "ng/g"}, {"measurement": "M4N (ng)/organ dry weight (g)", "setting": "[3]; Heart, 2 hours after oral 30 mg M4N in castor oil", "value": 0.83, "unit": "ng/g"}, {"measurement": "M4N (ng)/organ dry weight (g)", "setting": "[3]; Heart, 4 hours after oral 30 mg M4N in castor oil", "value": 0.11, "unit": "ng/g"}, {"measurement": "M4N (ng)/organ dry weight (g)", "setting": "[3]; Heart, 8 hours after oral 30 mg M4N in castor oil", "value": 1.16, "unit": "ng/g"}, {"measurement": "M4N (ng)/organ dry weight (g)", "setting": "[3]; Kidneys, 2 hours after oral 30 mg M4N in castor oil", "value": 0.12, "unit": "ng/g"}, {"measurement": "M4N (ng)/organ dry weight (g)", "setting": "[3]; Kidneys, 4 hours after oral 30 mg M4N in castor oil", "value": 0.61, "unit": "ng/g"}, {"measurement": "M4N (ng)/organ dry weight (g)", "setting": "[3]; Kidneys, 8 hours after oral 30 mg M4N in castor oil", "value": 0, "unit": "ng/g"}, {"measurement": "M4N (ng)/organ dry weight (g)", "setting": "[3]; Lg. Intestine, 2 hours after oral 30 mg M4N in castor oil", "value": 0.24, "unit": "ng/g"}, {"measurement": "M4N (ng)/organ dry weight (g)", "setting": "[3]; Lg. Intestine, 4 hours after oral 30 mg M4N in castor oil", "value": 8.24, "unit": "ng/g"}, {"measurement": "M4N (ng)/organ dry weight (g)", "setting": "[3]; Lg. Intestine, 8 hours after oral 30 mg M4N in castor oil", "value": 2.68, "unit": "ng/g"}, {"measurement": "M4N (ng)/organ dry weight (g)", "setting": "[3]; Liver, 2 hours after oral 30 mg M4N in castor oil", "value": 0.05, "unit": "ng/g"}, {"measurement": "M4N (ng)/organ dry weight (g)", "setting": "[3]; Liver, 4 hours after oral 30 mg M4N in castor oil", "value": 0.52, "unit": "ng/g"}, {"measurement": "M4N (ng)/organ dry weight (g)", "setting": "[3]; Liver, 8 hours after oral 30 mg M4N in castor oil", "value": 0, "unit": "ng/g"}, {"measurement": "M4N (ng)/organ dry weight (g)", "setting": "[3]; Lungs, 2 hours after oral 30 mg M4N in castor oil", "value": 0.43, "unit": "ng/g"}, {"measurement": "M4N (ng)/organ dry weight (g)", "setting": "[3]; Lungs, 4 hours after oral 30 mg M4N in castor oil", "value": 0, "unit": "ng/g"}, {"measurement": "M4N (ng)/organ dry weight (g)", "setting": "[3]; Lungs, 8 hours after oral 30 mg M4N in castor oil", "value": 2.7, "unit": "ng/g"}, {"measurement": "M4N (ng)/organ dry weight (g)", "setting": "[3]; Pancreas, 2 hours after oral 30 mg M4N in castor oil", "value": 0.57, "unit": "ng/g"}, {"measurement": "M4N (ng)/organ dry weight (g)", "setting": "[3]; Pancreas, 4 hours after oral 30 mg M4N in castor oil", "value": 24.69, "unit": "ng/g"}, {"measurement": "M4N (ng)/organ dry weight (g)", "setting": "[3]; Pancreas, 8 hours after oral 30 mg M4N in castor oil", "value": 2.97, "unit": "ng/g"}, {"measurement": "M4N (ng)/organ dry weight (g)", "setting": "[3]; Seminal Vesicles, 2 hours after oral 30 mg M4N in castor oil", "value": 0.21, "unit": "ng/g"}, {"measurement": "M4N (ng)/organ dry weight (g)", "setting": "[3]; Seminal Vesicles, 4 hours after oral 30 mg M4N in castor oil", "value": 0.37, "unit": "ng/g"}, {"measurement": "M4N (ng)/organ dry weight (g)", "setting": "[3]; Seminal Vesicles, 8 hours after oral 30 mg M4N in castor oil", "value": 0, "unit": "ng/g"}, {"measurement": "M4N (ng)/organ dry weight (g)", "setting": "[3]; Small Intestine, 2 hours after oral 30 mg M4N in castor oil", "value": 0.09, "unit": "ng/g"}, {"measurement": "M4N (ng)/organ dry weight (g)", "setting": "[3]; Small Intestine, 4 hours after oral 30 mg M4N in castor oil", "value": 8.42, "unit": "ng/g"}, {"measurement": "M4N (ng)/organ dry weight (g)", "setting": "[3]; Small Intestine, 8 hours after oral 30 mg M4N in castor oil", "value": 5.53, "unit": "ng/g"}, {"measurement": "M4N (ng)/organ dry weight (g)", "setting": "[3]; Spleen, 2 hours after oral 30 mg M4N in castor oil", "value": 1.1, "unit": "ng/g"}, {"measurement": "M4N (ng)/organ dry weight (g)", "setting": "[3]; Spleen, 4 hours after oral 30 mg M4N in castor oil", "value": 0.16, "unit": "ng/g"}, {"measurement": "M4N (ng)/organ dry weight (g)", "setting": "[3]; Spleen, 8 hours after oral 30 mg M4N in castor oil", "value": 0, "unit": "ng/g"}, {"measurement": "M4N (ng)/organ dry weight (g)", "setting": "[3]; Stomach, 2 hours after oral 30 mg M4N in castor oil", "value": 0.23, "unit": "ng/g"}, {"measurement": "M4N (ng)/organ dry weight (g)", "setting": "[3]; Stomach, 4 hours after oral 30 mg M4N in castor oil", "value": 45.03, "unit": "ng/g"}, {"measurement": "M4N (ng)/organ dry weight (g)", "setting": "[3]; Stomach, 8 hours after oral 30 mg M4N in castor oil", "value": 33.9, "unit": "ng/g"}, {"measurement": "M4N present in tissue", "setting": "[3]; pancreas, 4 hours post-feeding", "value": "Significant quantities"}, {"measurement": "Time of peak M4N levels", "setting": "[3]; post-feeding, single oral 30 mg", "value": "roughly 4 hours"}, {"measurement": "Solubility in dimethyl sulfoxide", "setting": "[4]", "value": "soluble in dimethyl sulfoxide"}, {"measurement": "Water solubility / hydrophilic or lipophilic character", "setting": "[4]", "value": "hydrophobic or lipophilic"}, {"measurement": "Tumor Volume Increase (%) - 21 Days Treatment, M4N-Treatment", "setting": "[5]; Hep 3B xenograft, 2 mg M4N i.p. daily for 3 weeks", "value": 113, "unit": "%"}, {"measurement": "Ratio of Mean M4N-Treated Tumor Size to Control Tumor Size", "setting": "[5]; Hep 3B xenograft, 2 mg M4N i.p. daily, 21 days", "value": 19.3, "unit": "%"}, {"measurement": "Reduction in mean tumor volume versus control", "setting": "[5]; Hep 3B, after 21 days systemic M4N treatment", "value": 80, "unit": "%"}, {"measurement": "DOTV: number of tumors with decrease in volume from the original tumor volume", "setting": "[5]; [6]", "value": 2}, {"measurement": "IOTV: number of tumors with increase in volume from the original tumor volume", "setting": "[5]; [6]", "value": 5}]}]}
